Read-outs that look alike come from different tables or passages of the source.
Experiments:
FKBP12(V36) = target: T1, FKBP12(V36) (Homo sapiens, UniProt P62942, F37V); experiment: AP1903 needed in vitro for effective signaling of cells; format: cell-based
T1 construct: expressed in transfected cells; host or cells: cells transduced with Ad5f35-ihCD40 (human monocyte-derived dendritic cells); inferred, the sentence names no cells
Procedure: The fixed dose of AP1903 for Injection used in this study is 0.4 mg/kg intravenously infused over 2 hours. The amount of AP1903 needed in vitro for effective signaling of cells is 10-100 nM (1600 Da MW). This equates to 16-160 μg/L or ˜0.016-1.6 mg/kg (1.6-160 μg/kg). Doses up to 1 mg/kg were well-tolerated in the Phase I study of AP1903 described above. Therefore, 0.4 mg/kg may be a safe and effective dose of AP1903 for this Phase I study in combination with BPX-101.

[1] = cited from earlier work
NFkappaB = NFkappaB reporter assay, iCD40 constructs in Jurkat T cells with titrated AP20187; format: cell-based, human
Procedure: Reporters assays were conducted in human Jurkat-TAg (T cells) or 293 (kidney embryonic epithelial) cells or murine RAW264.7 (macrophage) cells. Jurkat-TAg cells (107) in log-phase growth were electroporated ([…], 250 V) with […] expression plasmid and […] of reporter plasmid NF-kB-SEAP or IFNb-TA-SEAP (see above). 293 or RAW264.7 cells (˜2×10^5 cells per 35-mm dish) in log phase were transfected with […] of FuGENE-6 in growth media. After 24 hr, transformed cells were stimulated with CID. After an additional 20 h, supernatants were assayed for SEAP activity as discussed previously (Spencer, D. M., et al., Science 262, 1019-1024 (1993)).
An inducible CD40 receptor based on chemical-induced dimerization (CID) and patterned after endogenous CD40 activation was produced to specifically target DCs (FIG. 1A). The recombinant CD40 receptor, termed iCD40, was engineered by rt-PCR amplifying the 228 bp CD40 cytoplasmic signaling domain from purified murine bone marrow-derived DCs (>95% CD11c+) and sub-cloning the resulting DNA fragment either downstream (i.e., M-FvFvlsCD40-E) or upstream (M-CD40-FvFvls-E) of tandem copies of the dimerizing drug binding domain, FKBP12(V36) (FIG. 1B). […]

IL-6 = target: T2, IL-6 (Homo sapiens, UniProt P05231); conditions: cited from earlier work
T2 construct: host or cells: patients' endogenous IL-6
T2 sequence (P05231 30-212): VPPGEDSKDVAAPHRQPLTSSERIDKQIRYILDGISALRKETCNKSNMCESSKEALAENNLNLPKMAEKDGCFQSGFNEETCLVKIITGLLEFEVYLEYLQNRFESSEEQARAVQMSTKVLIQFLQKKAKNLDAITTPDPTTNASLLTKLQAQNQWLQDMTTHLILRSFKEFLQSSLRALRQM

[2] = patients with advanced cancer, Clarke et al.

T1 sequence (P62942 2-108 F37V): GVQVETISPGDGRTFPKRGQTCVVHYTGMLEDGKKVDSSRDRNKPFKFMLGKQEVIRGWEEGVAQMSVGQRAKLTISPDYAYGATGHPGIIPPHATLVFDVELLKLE

Molecule: CC[C@H](C(=O)N1CCCC[C@H]1C(=O)O[C@H](CCc1ccc(OC)c(OC)c1)c1cccc(OCC(=O)NCCNC(=O)COc2cccc([C@@H](CCc3ccc(OC)c(OC)c3)OC(=O)[C@@H]3CCCCN3C(=O)[C@@H](CC)c3cc(OC)c(OC)c(OC)c3)c2)c1)c1cc(OC)c(OC)c(OC)c1 (relative stereo) [AP1903, 2-Piperidinecarboxylic acid, 1-[(2S)-1-oxo-2-(3,4,5-trimethoxyphenyl)butyl]-, 1,2-ethanediylbis[imino(2-oxo-2,1-ethanediyl)oxy-3,1-phenylene[(1R)-3-(3,4-dimethoxyphenyl)propylidene]]ester, [2S-[1(R*),2R*[S*[S*[1(R*),2R*]]]]]-(9Cl)]
- amount needed for effective signaling, converted to dose (FKBP12(V36)): 0.016 to 1.6 mg/kg
- amount needed in vitro for effective signaling of cells (FKBP12(V36)): 10 to 100 nM
- amount needed for effective signaling, converted (FKBP12(V36); 1600 Da MW): 16 to 160 µg/L
- mean Cmax ([1]; 0.01-1.0 mg/kg dose range, IV over 2 hours, plasma): 10 to 1275 ng/mL
- AP1903 plasma levels versus dose ([1]; 0.01-1.0 mg/kg): directly proportional to dose
- plasma level as % of maximal concentration ([1]; 0.5 hours post-dose): approximately 18%
- plasma level as % of maximal concentration ([1]; 2 hours post-dose): ~7%
- plasma level as % of maximal concentration ([1]; 10 hours post-dose): ~1%
- well-tolerated doses ([1]; Phase I study of AP1903): up to 1 mg/kg

Molecule: CC[C@H](C(=O)N1CCCC[C@H]1C(=O)O[C@H](CCc1ccc(OC)c(OC)c1)c1cccc(OCC(=O)NCC(CNC(=O)COc2cccc([C@@H](CCc3ccc(OC)c(OC)c3)OC(=O)[C@@H]3CCCCN3C(=O)[C@@H](CC)c3cc(OC)c(OC)c(OC)c3)c2)CN(C)C)c1)c1cc(OC)c(OC)c(OC)c1 [AP20187]
- high drug dose suppression (NFkappaB; iCD40-transfected Jurkat T cells): over 100 nM
- NF B transcriptional activity (NFkappaB; increasing AP20187, iCD40 constructs vs control vector M-FvFvls-E): significant upregulation

B1: ALD-518: humanized anti-IL-6 monoclonal antibody (antibody, chains of the INN, looked up, V domains shown)
VH: EVQLVESGGGLVQPGGSLRLSCAASGFSLSNYYVTWVRQAPGKGLEWVGIIYGSDETAYATSAIGRFTISRDNSKNTLYLQMNSLRAEDTAVYYCARDDSSDWDAKFNLWGQGTLVTVSS
VL: AIQMTQSPSSLSASVGDRVTITCQASQSINNELSWYQQKPGKAPKLLIYRASTLASGVPSRFSGSGSGTDFTLTISSLQPDDFATYYCQQGYSLRNIDNAFGGGTKVEIK
- hematologic parameters and albumin (IL-6; larger study, cancer-related anemia, cachexia and fatigue, Schuster et al.): increase hemoglobin, hematocrit, mean corpuscular hemoglobin, and albumin
- C-reactive protein levels (IL-6; [2]): decrease in C-reactive protein levels
- fatigue, hemoglobin and albumin (IL-6; [2]): reverse fatigue, increase hemoglobin and increase albumin
- hand grip strength (IL-6; [2]): trend to increased hand grip strength

From patent US20140023647A1, “METHOD FOR TREATING SOLID TUMORS” (BELLICUM PHARMACEUTICALS, INC., priority 2010, published 2014)
